Experimental data published in the supplement of paper PMC13207355.

Experiments:
Settings in all cases: exposure time: 72 h
E28 [1] = patient-derived glioblastoma stem cells of classical subtype; experiment: surviving fraction (nuclei count normalised to DMSO); higher = more cells surviving (less toxic)
E57 [2] = patient-derived glioblastoma stem cells of mesenchymal subtype; experiment: as above
E31 [3] = patient-derived glioblastoma stem cells of proneural subtype; experiment: as above
E34 [4] = patient-derived glioblastoma stem cells of proneural subtype; experiment: as above
E13 [5] = patient-derived glioblastoma stem cells of classical subtype; experiment: as above
E21 [6] = patient-derived glioblastoma stem cells of mesenchymal subtype; experiment: as above
FT3469 [7] = normal neural stem cell line; experiment: as above
E28 [8] = experiment: phenotypic distance (Euclidean, principal components) from DMSO controls (arbitrary units); higher = stronger morphological change
E57 [9] = experiment: as above
E31 [10] = experiment: as above
E34 [11] = experiment: as above
E13 [12] = experiment: as above
E21 [13] = experiment: as above
FT3469 [14] = experiment: as above
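Throughout, for phenotypic distance (Euclidean, principal components) from DMSO controls: cell Painting imaging in 384-well plates, CellProfiler features reduced to at least 20 principal components, Euclidean distance versus same-plate DMSO vehicle wells (0.1% v/v), median over six images per well.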
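Throughout, for surviving fraction (nuclei count normalised to DMSO): nuclei counted by high-content imaging of Hoechst-stained cells in laminin-coated 384-well plates, relative to 0.1% DMSO vehicle wells, with staurosporine as cell-death control.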

CC1(C)S[C@@H]2[C@H](NC(=O)Cc3ccccc3)C(=O)N2[C@H]1C(=O)O [Benzylpenicillin sodium]
Settings	phenotypic distance	surviving fraction
E13 [5], 4.1 nM	–	1.1
E13 [5], 12.3 nM	–	1.14
E13 [5], 37 nM	–	1.07
E13 [5], 111.1 nM	–	1.17
E13 [5], 333.3 nM	–	1.06
E13 [5], 1000 nM	–	1.06
E13 [5], 3000 nM	–	1.08
E13 [12], 4.1 nM	0.664	–
E13 [12], 12.3 nM	1.03	–
E13 [12], 37 nM	0.438	–
E13 [12], 111.1 nM	0.926	–
E13 [12], 333.3 nM	0.678	–
E13 [12], 1000 nM	1.04	–
E13 [12], 3000 nM	0.985	–
E21 [6], 4.1 nM	–	1.06
E21 [6], 12.3 nM	–	1.11
E21 [6], 37 nM	–	1.03
E21 [6], 111.1 nM	–	1.04
E21 [6], 333.3 nM	–	0.968
E21 [6], 1000 nM	–	1.14
E21 [6], 3000 nM	–	0.993
E21 [13], 4.1 nM	0.889	–
E21 [13], 12.3 nM	0.821	–
E21 [13], 37 nM	0.791	–
E21 [13], 111.1 nM	0.688	–
E21 [13], 333.3 nM	4.43	–
E21 [13], 1000 nM	1.31	–
E21 [13], 3000 nM	0.858	–
E28 [1], 4.1 nM	–	1.28
E28 [1], 12.3 nM	–	1.09
E28 [1], 37 nM	–	1.38
E28 [1], 111.1 nM	–	0.946
E28 [1], 333.3 nM	–	1.14
E28 [1], 1000 nM	–	1.12
E28 [1], 3000 nM	–	0.901
E28 [8], 4.1 nM	0.78	–
E28 [8], 12.3 nM	0.57	–
E28 [8], 37 nM	0.958	–
E28 [8], 111.1 nM	0.61	–
E28 [8], 333.3 nM	0.635	–
E28 [8], 1000 nM	0.605	–
E28 [8], 3000 nM	1.19	–
E31 [3], 4.1 nM	–	1.03
E31 [3], 12.3 nM	–	0.949
E31 [3], 37 nM	–	1.1
E31 [3], 111.1 nM	–	1.03
E31 [3], 333.3 nM	–	1.1
E31 [3], 1000 nM	–	0.947
E31 [3], 3000 nM	–	0.879
E31 [10], 4.1 nM	0.966	–
E31 [10], 12.3 nM	0.585	–
E31 [10], 37 nM	0.478	–
E31 [10], 111.1 nM	0.839	–
E31 [10], 333.3 nM	1.16	–
E31 [10], 1000 nM	0.685	–
E31 [10], 3000 nM	1.21	–
E34 [4], 4.1 nM	–	1.11
E34 [4], 12.3 nM	–	0.981
E34 [4], 37 nM	–	1.02
E34 [4], 111.1 nM	–	1.02
E34 [4], 333.3 nM	–	0.906
E34 [4], 1000 nM	–	0.865
E34 [4], 3000 nM	–	0.864
E34 [11], 4.1 nM	0.752	–
E34 [11], 12.3 nM	0.424	–
E34 [11], 37 nM	0.561	–
E34 [11], 111.1 nM	0.473	–
E34 [11], 333.3 nM	0.826	–
E34 [11], 1000 nM	0.717	–
E34 [11], 3000 nM	1.48	–
E57 [2], 4.1 nM	–	1.03
E57 [2], 12.3 nM	–	0.993
E57 [2], 37 nM	–	1
E57 [2], 111.1 nM	–	1.01
E57 [2], 333.3 nM	–	1.04
E57 [2], 1000 nM	–	0.87
E57 [2], 3000 nM	–	0.922
E57 [9], 4.1 nM	0.898	–
E57 [9], 12.3 nM	0.449	–
E57 [9], 37 nM	0.995	–
E57 [9], 111.1 nM	0.845	–
E57 [9], 333.3 nM	1.07	–
E57 [9], 1000 nM	0.999	–
E57 [9], 3000 nM	1.39	–
FT3469 [7], 4.1 nM	–	1.05
FT3469 [7], 12.3 nM	–	1.29
FT3469 [7], 37 nM	–	1.05
FT3469 [7], 111.1 nM	–	1.18
FT3469 [7], 333.3 nM	–	0.99
FT3469 [7], 1000 nM	–	1.27
FT3469 [7], 3000 nM	–	1.12
FT3469 [14], 4.1 nM	0.569	–
FT3469 [14], 12.3 nM	0.961	–
FT3469 [14], 37 nM	1.12	–
FT3469 [14], 111.1 nM	0.565	–
FT3469 [14], 333.3 nM	0.741	–
FT3469 [14], 1000 nM	0.951	–
FT3469 [14], 3000 nM	1.77	–
